Common to all, as to experiment: cell viability (% survival relative to DMSO control, bortezomib = 0%); higher = less cytotoxic
Details in all cases: 72 h

In test [1] the test system is HL-60. Summed up:
(§1)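 Fifteen myeloid leukaemia cell lines (10 AML, 5 CML) were seeded at a density titrated to the linear growth range into 384-well plates pre-printed with compounds at 1, 10, 100, 1000 or 10000 nM in duplicate. Plates were incubated for 72 h at 37 °C with 5% CO2. Viability was then read by CellTiter-Glo luminescence. Each value is percent survival averaged over the duplicates, with vehicle set to 100% and a 10 µM positive control to 0%.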

The test system of test [2] is K-562. Summed up:
as §1

Test [3] deals with ML-2. Summed up:
as §1

In test [4] the test system is BV-173. A digest of the protocol: as §1

This note sets out measurements from the supplement of paper PMC8671470.

Each structure is given as a SMILES string.

As to `CCOC(=O)[C@@]1(CCCCCCOc2ccc(Cl)cc2)CO1` [Etomoxir], the cell viability in test [1] (1 nM) was 77.7%; in test [1] (10 nM), 74.7%; in test [1] (100 nM), 83.3%; in test [1] (1000 nM) it was 98.5%; in test [1] (10000 nM), 69.5%; in test [2] (1 nM), 113%. Besides, the cell viability was determined as 95.8% in test [2] (10 nM); 86.5% in test [2] (100 nM); 93.2% in test [2] (1000 nM); 71.8% in test [2] (10000 nM); 109% in test [3] (1 nM); 109% in test [3] (10 nM). Further, the cell viability is 114% in test [3] (100 nM); 87.6% in test [3] (1000 nM); 99.9% in test [3] (10000 nM); 94.8% in test [4] (1 nM); 105% in test [4] (10 nM); 88.8% in test [4] (100 nM). Further, the cell viability in test [4] (1000 nM) was found to be 64.8%; in test [4] (10000 nM) it was 57.8%.

For `N[C@](CCCCB(O)O)(CCN1CCCCC1)C(=O)O` [Arginase inhibitor 1], the cell viability turned out to be 131% in test [1] (1 nM); 104% in test [1] (10 nM); 73.9% in test [1] (100 nM); 106% in test [1] (1000 nM); 117% in test [1] (10000 nM); 120% in test [2] (1 nM). Further, the cell viability in test [2] (10 nM) turned out to be 102%; in test [2] (100 nM), 93.1%; in test [2] (1000 nM) it was 90.6%; in test [2] (10000 nM) it was 88.4%; in test [3] (1 nM), 112%; in test [3] (10 nM) it was 93.9%. Moreover, the cell viability in test [3] (100 nM) came out at 93.1%; in test [3] (1000 nM), 93.4%; in test [3] (10000 nM), 99.7%; in test [4] (1 nM) it was 141%; in test [4] (10 nM) it was 77%; in test [4] (100 nM) it was 90.8%. In addition, the results for the cell viability in test [4] (1000 nM) and in test [4] (10000 nM) were 88.5% and 96.1%, respectively.

Regarding `O=C(COc1ccc(C(=O)c2ccccc2)cc1)NC1CCN(Cc2ccccc2)CC1` [AdipoRon], the cell viability in test [1] (1 nM) came to 102%; in test [1] (10 nM), 118%; in test [1] (100 nM) it was 81.9%; in test [1] (1000 nM), 111%; in test [1] (10000 nM), 70%; in test [2] (1 nM) it was 90.2%. Also, the cell viability amounted to 105% in test [2] (10 nM); 79.7% in test [2] (100 nM); 104% in test [2] (1000 nM); 58.3% in test [2] (10000 nM); 84% in test [3] (1 nM); 107% in test [3] (10 nM). The cell viability in test [3] (100 nM) stood at 94.5%; in test [3] (1000 nM), 97.6%; in test [3] (10000 nM), 65.9%; in test [4] (1 nM), 84%; in test [4] (10 nM), 105%; in test [4] (100 nM), 96.7%. For the same molecule, the cell viability in test [4] (1000 nM) worked out at 87%; in test [4] (10000 nM), 52.9%.

For the molecule `Cl.OC[C@H]1NC[C@@H](O)[C@@H](O)[C@@H]1O` [1-Deoxymannojirimycin hydrochloride], the cell viability in test [1] (1 nM) amounted to 98.5%; in test [1] (10 nM) it was 79.5%; in test [1] (100 nM), 102%; in test [1] (1000 nM), 124%; in test [1] (10000 nM), 80.5%; in test [2] (1 nM), 93.7%. Further, the cell viability in test [2] (10 nM) was 70.4%; in test [2] (100 nM) it was 104%; in test [2] (1000 nM), 103%; in test [2] (10000 nM) it was 91.6%; in test [3] (1 nM), 101%; in test [3] (10 nM) it was 90.6%. The cell viability turned out to be 100% in test [3] (100 nM); 110% in test [3] (1000 nM); 87.6% in test [3] (10000 nM); 111% in test [4] (1 nM); 83.1% in test [4] (10 nM); 96.9% in test [4] (100 nM). The cell viability in test [4] (1000 nM) is 103%; in test [4] (10000 nM), 102%.

On to `C[C@H]1O[C@@H](O[C@H]2[C@@H](O)C[C@H](O[C@H]3[C@@H](O)C[C@H](O[C@H]4CC[C@@]5(C)[C@H](CC[C@@H]6[C@@H]5C[C@@H](O)[C@]5(C)[C@@H](C7=CC(=O)OC7)CC[C@]65O)C4)O[C@@H]3C)O[C@@H]2C)C[C@H](O)[C@@H]1O` [Digoxin], for which the cell viability in test [1] (1 nM) was 104%; in test [1] (10 nM), 107%; in test [1] (100 nM), -0.615%; in test [1] (1000 nM), -0.309%; in test [1] (10000 nM) it was -0.00704%; in test [2] (1 nM), 95.2%. Moreover, the cell viability in test [2] (10 nM) is 107%; in test [2] (100 nM), 41.8%; in test [2] (1000 nM), -0.121%; in test [2] (10000 nM), 0.146%; in test [3] (1 nM), 99%; in test [3] (10 nM), 109%. Besides, the cell viability in test [3] (100 nM) was 5.07%; in test [3] (1000 nM), -0.2%; in test [3] (10000 nM), -0.154%; in test [4] (1 nM), 92.3%; in test [4] (10 nM), 106%; in test [4] (100 nM) it was 3.24%. Moreover, the cell viability in test [4] (1000 nM) was -0.0612%; in test [4] (10000 nM) it was -0.063%.

On to `CC(C(=O)O)C(=O)O` [Methylmalonate], for which the cell viability in test [1] (1 nM) came to 84.9%; in test [1] (10 nM), 104%; in test [1] (100 nM) it was 92.2%; in test [1] (1000 nM), 116%; in test [1] (10000 nM), 90.1%; in test [2] (1 nM), 95.3%. The cell viability in test [2] (10 nM) was 101%; in test [2] (100 nM), 106%; in test [2] (1000 nM), 95.2%; in test [2] (10000 nM), 107%; in test [3] (1 nM) it was 87.4%; in test [3] (10 nM), 96.5%. In addition, the cell viability in test [3] (100 nM) was found to be 96.6%; in test [3] (1000 nM), 92.2%; in test [3] (10000 nM), 87.9%; in test [4] (1 nM) it was 92.5%; in test [4] (10 nM), 89.2%; in test [4] (100 nM), 104%. The cell viability amounted to 98.3% in test [4] (1000 nM) and 96.1% in test [4] (10000 nM).
